Values joined by “and” are separate entries in the source; they are usually repeats but may differ in a detail not shown here. Equal entries are not always repeated. Where two headings read alike, the source gives them in different places. Marks after values point to notes of the source that are not given here.
Assays:
[1] = Photolytic molecule experiment: TTAP photolytic reaction in solution under LED, HPLC yield; type: physicochemical
Procedure: Photolytic molecule experiment: The NIR LED (720 nm), far red LED (650 nm), green LED (530 nm), blue LED (476 nm) and deep blue (455 nm) were used for photolytic reactions. […] Then, the solution was excited with a LED (20 mW/cm^2) at 37° C. After the photolytic reaction, the raw product was dried and re-dissolved in CH3CN/H2O=(2/1, v/v) and HPLC was used to analyze the yield of product.

[2] = Stern-Volmer photoluminescence quenching of photosensitizers by PPGs-X; type: physicochemical
Procedure: The Stern-Volmer quenching plots experiment (ksv): photoluminescence of photosensitizers (PtTNP, PdTPBP, PtOEP, and Ir(ppy)3) in the presence of different concentrations of PPGs (BDP, perylene, anthracene and coumarin). The mixed solutions were degassed for at least 15 min with Ar in toluene. The ksv constants were calculated with eq 1, where 1o and It stand for photoluminescence intensity of photosensitizer in the absence of PPGs-X and the photoluminescence intensity of photosensitizer in the presence PPGs-X. Q is the concentration of PPGs-X. Biomolecular quenching constants (kq) were calculated by eq2. The Tr is the phosphorescence lifetime of photosensitizer in argon.

[3] = TTA upconversion quantum yield; type: physicochemical
Procedure: The upconversion quantum yields (ΦUC): The upconversion quantum yields were calculated with the eq 3, where ΦUC and Φstd stand for upconversion luminescence quantum yield of sample TTA-UC and fluorescence quantum yield of reference compounds, respectively. Aunk and Astd stand for absorbance of the TTA-UC and reference compound, respectively. Iunk and Istd stand for integrated upconversion luminescence intensity of the TTA-UC and fluorescence intensity of reference compounds, respectively. ηunk and μstd stand for the refractive index of water. The equation is multiplied by a factor of 2 to make the maximum quantum yield of two unified emitters.
The upconversion experiments were deaerated with argon for ca. 15 min before measurement and the argon gas flow was kept during the measurement.

[4] = Photophysical parameters of Sen and PPGs (UV-vis absorption, emission, energy levels); type: physicochemical; parameters: λabs maximum absorption wavelength / λem maximum emission wavelength: unit not given here
Procedure: Characterization: ^1H NMR spectra were recorded with a Bruker 500 MHz spectrometer. UV-Vis spectra were recorded on an Agilent Cary-5 spectrophotometer. Steady-state fluorescence spectra were measured on a HITACHI F-7000 spectrometer. […] The sample for TEM measurement was prepared by dropping the solution onto a carbon-coated copper grid following negative staining with 2.0% (w/v) phosphotungstic acid. The particle size and size distribution were measured by using dynamic light scattering (DLS) on a Malvern Nano-ZS particle size analyzer, excitation wavelength 532 nm. All samples in the Stern-Volmer quenching plots experiments were deaerated with argon for ca. 15 min before measurement and the gas flow was maintained during the measurements. For the TTA upconversion spectra measurement, the diode pumped solid-state laser (650 nm, continues wave, CW, Hi-Teach company, China) was used as the excitation light source and a modified spectrofluorometer was used to record the upconversion spectra. For the prodrug photolytic experiment, an All LED (Mightex Company) was used as the excitation light source.
From the absorption and emission spectra of Sen and PPGs, the triplet and singlet energy levels of PPG and Sen can be calculated. The maximum emission wavelength of phosphorescence is the triplet excited state energy level (T1) of the Sen. The maximum emission wavelength of fluorescence is the singlet excited state energy level (S1) of the PPGs. Moreover, according to the literature, we know the triplet excited energy levels of PPGs. The detail information is always in […]

[5] = PPGs; from the literature; listed as Py; cited from earlier work
[6] = Photocleavage quantum yield / photolytic quantum efficiency calculation
Excerpt: We compared photolytic quantum efficiency of the widely used PPG of Cou by using the UCNPs as phototransducer.

For CC(=O)OCc1ccc2c3cccc4cccc(c5cccc1c52)c43 [compound 8], the photolytic yield [1] was 70%, the “Yield (HPLC) of photolytic reaction” value ([1]; PdTPBP, air, room light, 60 min) was “No reaction” and the “Yield (HPLC) of photolytic reaction” value ([1]; PdTPBP, argon, room light, 60 min) was “No reaction”. The “Yield (HPLC) of photolytic reaction” value ([1]; PdTPBP, dark, argon, 1 h) was “No reaction”, the photolytic yield ([1]; PdTPBP, far-red LED light (20 mW/cm^2, 650 nm)) was 87% and 87.1% and the “Yield (HPLC) of photolytic reaction” value ([1]; PdTPBP, light, air, 1 h) was “No reaction”. For the same molecule, the “Yield (HPLC) of photolytic reaction” value ([1]; PdTPBP, light, argon, 1 h) was 87.1%, the photolytic yield ([1]; PtTNP, NIR LED light (20 mW/cm^2, 720 nm, 1 h)) was 14.7% and the “Yield (HPLC) of photolytic reaction” value ([1]; PtTNP, dark, argon, 1 h) was “No reaction”. For the same molecule, the “Yield (HPLC) of photolytic reaction” value ([1]; PtTNP, light, air, 1 h) was “No reaction”, the “Yield (HPLC) of photolytic reaction” value ([1]; PtTNP, light, argon, 1 h) was 14.7% and the “Yield (HPLC) of photolytic reaction” value ([1]; compound only (no PdTPBP), far red light, argon, 1 h) was “No reaction”. For the same molecule, the “Yield (HPLC) of photolytic reaction” value ([1]; compound only (no PtTNP), NIR light, argon, 1 h) was “No reaction”, the “Yield (HPLC) of photolytic reaction” value ([1]; compound only, air, blue light (445 nm, 20 mW/cm^2), 60 min) was 59% and the “Yield (HPLC) of photolytic reaction” value ([1]; compound only, air, dark, 60 min) was “No reaction”. For the same molecule, the “Yield (HPLC) of photolytic reaction” value ([1]; compound only, air, room light, 60 min) was “No reaction”, the “quenching of the photoluminescence of PdTPBP” value ([2]; PdTPBP) was “obvious quenching effects” and the “ksv (bimolecular quenching constant)” value ([2]; PdTPBP as sensitizer) was 1.09 × 10^9 g M^−1S^−1. The “ksv Stern-Volmer quenching constant” value ([2]; PdTPBP as sensitizer) was 243000 g/M, the “quenching of the photoluminescence of PtOEP” value ([2]; PtOEP) was “significant quenching” and the “ksv (bimolecular quenching constant)” value ([2]; PtOEP as sensitizer) was 2.9 × 10^9 j M^−1S^−1. The “ksv Stern-Volmer quenching constant” value ([2]; PtOEP as sensitizer) was 262000 J/M, the “quenching of the photoluminescence of PtTNP” value ([2]; PtTNP) was “quenching effect” and the upconversion quantum yield ([3]; paired with PdTPBP) was 5.8%. For the same molecule, the upconversion quantum yield ([3]; paired with PtOEP) was 9.5%, the upconversion quantum yield ([3]; paired with PtTNP) was 0.05% and the “2 × T1 − S1” value ([4]; PPGs) was 0.26 eV. For the same molecule, the “S1 singlet excited state” value ([4]; PPGs, from maximum fluorescence emission) was 2.78 eV, the “λabs maximum absorption wavelength” value ([4]; in toluene, 10 μM) was 440 and the “λem maximum emission wavelength” value ([4]; in toluene, 10 μM) was 445. The “ξ molar extinction coefficient” value ([4]; in toluene, 10 μM) was 4.0 10^4 M^−1 cm^−1, the “T1 triplet excited state” value [5] was 1.52 ^m eV and 1.52 eV and the “increase of ηp (TTAP) over ηp (direct)” value ([6]; PdTPBP) was 282%. For the same molecule, the “ε2 × Φp: ε (Sen) × Φp (PPGs); ηp (TTAP)” value ([6]; PdTPBP as sensitizer) was 10230 ^g, the “ε2 × Φp: ε (Sen) × Φp (PPGs); ηp (TTAP)” value ([6]; PdTPBP as sensitizer, listed as Py) was 10230 and the “increase of ηp (TTAP) over ηp (direct)” value ([6]; PtOEP) was 179%. For the same molecule, the “ε2 × Φp: ε (Sen) × Φp (PPGs); ηp (TTAP)” value ([6]; PtOEP as sensitizer) was 6510 ^j, the “ε2 × Φp: ε (Sen) × Φp (PPGs); ηp (TTAP)” value ([6]; PtOEP as sensitizer, listed as Py) was 6510 and the “increase of ηp (TTAP) over ηp (direct)” value ([6]; PtTNP) was 342%. The “ε2 × Φp: ε (Sen) × Φp (PPGs); ηp (TTAP)” value ([6]; PtTNP as photosensitizer) was 12400^h, the “ε2 × Φp: ε (Sen) × Φp (PPGs); ηp (TTAP)” value ([6]; PtTNP as photosensitizer, listed as Py) was 12400 and the “ε1 × Φp: ε (PPGs) × Φp (PPGs); ηp (direct)” value ([6]; direct short wavelength illumination) was 3627.
